In PMC10942119, “S-nitrosylation of a receptor-like cytoplasmic kinase regulates plant immunity” (Science Advances, 2024):
Each block holds one molecule with its values, some of them ahead of it.

Columns and labels:
BIK1 (MBP-BIK1) [1] = biological target: T1, BIK1 (MBP-BIK1) (Arabidopsis thaliana, UniProt O48814, K105E); test: biotin switch; type: binding; settings: covalent; NO donor (donor not named for this figure; GSNO in the same passage); kinase-dead mutant, GSNO gave no autophosphorylation
T1 construct: coding region of BIK1, HisMBP-tagged (pDEST-HisMBP; a 6xHis version from pDEST17 was also made), tag kept, E. coli BL21(DE3)
T1 sequence (O48814 1-395 K105E): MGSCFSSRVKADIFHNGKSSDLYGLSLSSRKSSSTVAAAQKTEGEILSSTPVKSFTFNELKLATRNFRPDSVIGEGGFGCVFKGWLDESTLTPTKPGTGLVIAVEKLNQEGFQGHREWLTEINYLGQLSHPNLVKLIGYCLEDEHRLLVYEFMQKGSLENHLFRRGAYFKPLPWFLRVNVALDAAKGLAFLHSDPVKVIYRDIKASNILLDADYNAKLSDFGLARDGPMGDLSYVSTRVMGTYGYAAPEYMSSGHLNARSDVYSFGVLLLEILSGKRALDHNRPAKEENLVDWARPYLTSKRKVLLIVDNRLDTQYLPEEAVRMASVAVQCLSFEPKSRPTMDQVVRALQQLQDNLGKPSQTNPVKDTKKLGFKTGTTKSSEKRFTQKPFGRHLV

BIK1 (MBP-BIK1) [2] = biological target: T2, BIK1 (MBP-BIK1) (Arabidopsis thaliana, UniProt O48814); test: biotin switch (anti-biotin Western blot); in vitro autophosphorylation assay; type: biochemical; settings: covalent; NO donor, S-nitrosylates cysteine, reversed by DTT; raises autophosphorylation; HEN buffer pH 7.7, 30 min, dark
T2 construct: coding region of BIK1, HisMBP-tagged (pDEST-HisMBP; a 6xHis version from pDEST17 was also made), tag kept, E. coli BL21(DE3)
T2 sequence (O48814 1-395): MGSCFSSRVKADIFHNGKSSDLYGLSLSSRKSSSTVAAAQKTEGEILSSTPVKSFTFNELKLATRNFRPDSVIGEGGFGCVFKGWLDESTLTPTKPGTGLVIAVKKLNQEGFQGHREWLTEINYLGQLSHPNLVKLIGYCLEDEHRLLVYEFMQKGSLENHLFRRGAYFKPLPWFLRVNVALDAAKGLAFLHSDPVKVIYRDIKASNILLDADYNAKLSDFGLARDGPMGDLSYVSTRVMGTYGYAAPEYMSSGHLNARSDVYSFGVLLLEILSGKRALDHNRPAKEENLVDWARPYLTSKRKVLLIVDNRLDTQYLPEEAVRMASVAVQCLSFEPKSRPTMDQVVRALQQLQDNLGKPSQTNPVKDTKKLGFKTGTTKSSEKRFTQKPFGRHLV

BIK1 (MBP-BIK1) [3] = biological target: T2, BIK1 (MBP-BIK1); test: biotin switch; type: binding; settings: covalent; NO donor, S-nitrosylates cysteine; HEN buffer pH 7.7, 30 min, dark
[4] = biological target: T3, MBP-BIK1 (recombinant botrytis-induced kinase 1 fused to maltose binding protein) (Arabidopsis (Col-0 cDNA), UniProt O48814 1-395); test: pull-down; GST-RB-N on Glutathione Sepharose 4B incubated with MBP or MBP-BIK1 (untreated or pretreated with 10 uM GSNO or 100 uM DTT); 30 mM Hepes, 100 mM NaCl, 0.2% Triton X-100, pH 7.5; 4°C, 4 hours, dark; anti-MBP immunoblot; settings: both partners purified
T3 construct: botrytis-induced kinase 1 (BIK1), Arabidopsis; coding region amplified from Col-0 cDNA; The text calls the protein in the pull-down pBIK1 as well; a phosphorylation state of the recombinant protein is not defined; also called recombinant BIK1; pDEST-HisMBP-BIK1; source: E. coli BL21(DE3), purified (amylose magnetic beads)
T3 sequence (looked up): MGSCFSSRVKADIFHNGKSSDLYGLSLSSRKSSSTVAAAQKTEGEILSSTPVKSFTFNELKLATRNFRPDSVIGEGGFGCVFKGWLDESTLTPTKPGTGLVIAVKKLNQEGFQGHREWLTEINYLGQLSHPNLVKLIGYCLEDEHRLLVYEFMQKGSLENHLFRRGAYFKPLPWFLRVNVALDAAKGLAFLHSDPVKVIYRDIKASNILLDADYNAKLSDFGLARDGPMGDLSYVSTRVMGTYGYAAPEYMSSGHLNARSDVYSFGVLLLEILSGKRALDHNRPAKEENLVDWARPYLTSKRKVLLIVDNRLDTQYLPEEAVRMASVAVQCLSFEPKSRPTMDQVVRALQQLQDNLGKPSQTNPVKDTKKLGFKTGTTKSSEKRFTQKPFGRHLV

[5] = biological target: T4, GSNO-pretreated MBP-BIK1 (S-nitrosylated BIK1, BIK1-SNO) (Arabidopsis (Col-0 cDNA), UniProt O48814 1-395, S-nitrosylation by GSNO pre-treatment; the paper assigns S-nitrosylation to Cys80); test: as above; settings: both partners purified
T4 construct: botrytis-induced kinase 1 (BIK1), Arabidopsis; coding region amplified from Col-0 cDNA; same construct as m1; Same protein as m1 after treatment with the NO donor; which cysteines carried SNO in this sample was not determined in the pull-down itself
T4 sequence (looked up): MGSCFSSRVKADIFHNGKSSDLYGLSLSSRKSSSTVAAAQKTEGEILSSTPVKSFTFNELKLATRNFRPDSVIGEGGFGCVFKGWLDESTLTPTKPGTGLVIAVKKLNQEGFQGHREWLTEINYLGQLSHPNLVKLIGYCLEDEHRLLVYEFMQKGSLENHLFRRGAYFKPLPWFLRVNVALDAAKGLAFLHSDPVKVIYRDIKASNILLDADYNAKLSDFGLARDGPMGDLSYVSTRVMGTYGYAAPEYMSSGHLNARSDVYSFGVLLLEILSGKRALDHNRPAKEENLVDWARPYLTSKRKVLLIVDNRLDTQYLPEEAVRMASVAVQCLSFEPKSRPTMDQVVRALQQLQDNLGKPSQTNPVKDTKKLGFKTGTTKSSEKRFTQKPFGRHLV

Molecule: N[C@@H](CCC(=O)N[C@@H](CSN=O)C(=O)NCC(=O)O)C(=O)O [GSNO]
biotin switch (BIK1 (MBP-BIK1) [1]): NO induced S-nitrosylation of BIK1^K105E (fig. S6F)
biotin switch (anti-biotin Western blot); in vitro autophosphorylation assay (BIK1 (MBP-BIK1) [2]): BIK1 was S-nitrosylated in a concentration-dependent fashion by GSNO

Molecule: N[C@@H](CSN=O)C(=O)O [Cys-NO]
biotin switch (BIK1 (MBP-BIK1) [3]): The natural NO donor, Cys-NO, also S-nitrosylated BIK1 in vitro

binding result [4]: binds
binding result [5]: binds
B1: GST-RBOHD-N (GST-tagged N terminus of respiratory burst oxidase homolog D) (domain or fragment, Arabidopsis, UniProt Q9FIJ0 1-376, looked up)
chain: MKMRRGNSSNDHELGILRGANSDTNSDTESIASDRGAFSGPLGRPKRASKKNARFADDLPKRSNSVAGGRGDDDEYVEITLDIRDDSVAVHSVQQAAGGGGHLEDPELALLTKKTLESSLNNTTSLSFFRSTSSRIKNASRELRRVFSRRPSPAVRRFDRTSSAAIHALKGLKFIATKTAAWPAVDQRFDKLSADSNGLLLSAKFWECLGMNKESKDFADQLFRALARRNNVSGDAITKEQLRIFWEQISDESFDAKLQVFFDMVDKDEDGRVTEEEVAEIISLSASANKLSNIQKQAKEYAALIMEELDPDNAGFIMIENLEMLLLQAPNQSVRMGDSRILSQMLSQKLRPAKESNPLVRWSEKIKYFILDNWQR
notes: respiratory burst oxidase homolog D (RBOHD), Arabidopsis; 1128 bp make 376 codons; also called GST-RB-N; N-RBOHD; source: E. coli BL21(DE3), purified (Glutathione Sepharose 4B)
